Measured values published in patent publication US9550792B2, “Polycyclic substituted pyrazole kinase activity inhibitors and use thereof” (priority 2013, dated 2017).
Read-outs that look alike come from different tables or passages of the source.

What was measured:
[1] = tested on: colon cancer cell line HCT116; test: Anti-tumor activity in vitro, MTT method; format: cell-based; conditions: Homo sapiens, HCT-116, 48 h
[2] = tested on: liver cancer cell line 7721; test: Anti-tumor activity in vitro, MTT method; format: cell-based; conditions: 48 h, read-out: 7721 (IC50/μM)
[3] = Measurement of water solubility; format: physicochemical; conditions: thermodynamic from solid, distilled water, 25° C.
Protocol: An excess quantity of sample was added into a 50 mL triangular flask, to which 10 mL distilled water was added, and then the flask was vibrated in a Constant Temperature Vibrator at 25° C. for 72 h. The solution was centrifuged at 10000 r/min for 15 min and then the supernatant was filtrated with […] microfiltration membrane to remove undissolved drug. 2 mL filtrate was metered with methanol to 10 ml. The content of drug was determined with 20 μL sample injection.

Plasma stability = format: in vitro ADME; conditions: rat plasma
Protocol: 300 μL blood collected from the rat was mixed with 30 μL methanol and 2 mL ethyl acetate. The samples were vortexed for 3 min and centrifuged at 4000 rpm for 15 min. The supernatant was introduced into another centrifugal tube. The lower layer was repeatedly extracted and then the supernatants were combined and dried with nitrogen gas. After redissolution with 150 μL methanol, they were filtered by 0.22 μm membrane and then subjected to analysis with a injection volume of 20 μL.
[…] The samples were prepared according to the method of 3.1. 20 μL were introduced into the HPLC system and the peak area is recorded for analysis to determine the stability of compound 1 and 2 in plasma.

[4] = tested on: lung cancer cell line A549; test: Anti-tumor activity in vitro, MTT method; conditions: Homo sapiens, A549, 48 h, read-out: A549 (IC50/μM)
Protocol: (§1) MTT method: the dehydrogenase associated with NADP in the mitochondria of living cell is capable of reducing exogenous MTT into insoluble bluish violet crystal (Formazan), which is precipitated in the cell. […] DMSO or Triple liquid (10% SDS-5% isobutanol-0.01 mol/L HCl) is used to dissolve the crystal in the cell. The OD determined at 570 nm by a microplate reader can reflect the amount of the living cell indirectly.
(§2) The crystal is dissolved with DMSO and the detection is performed on a microplate reader.

[5] = tested on: stomach cancer cell line MGC803; test: Anti-tumor activity in vitro, MTT method; conditions: Homo sapiens, MGC-803, 48 h, read-out: MGC803 (IC50/μM)
Protocol: as §1, §2

[6] = tested on: resistant breast cancer cell line MCF-7; test: Anti-tumor activity in vitro, MTT method; conditions: Homo sapiens, MCF7, 48 h, read-out: Resistant MCF7 (IC50/μM)
Protocol: as §1, §2

[7] = tested on: breast cancer cell line MDA231; test: Anti-tumor activity in vitro, MTT method; conditions: Homo sapiens, MDA-MB-231, 48 h, read-out: MDA231 (IC50/μM)
Protocol: as §1, §2

[8] = tested on: umbilical cord vein endothelium cell line HUVEC; test: Anti-tumor activity in vitro, MTT method; conditions: Homo sapiens, 48 h, read-out: HUVEC (IC50/μM)
Protocol: as §1, §2

leukemia cell line K562 = test: Anti-tumor activity in vitro, MTT method; conditions: Homo sapiens, K562, 48 h, read-out: K562 (IC50/μM)
Protocol: as §1, §2

S180 grafting tumor = test: Inhibition to S180 grafting tumor in animal; format: in vivo, ICR mouse; conditions: for Body weight After administration / Tumor inhibition / Tumor weight: 7 administrations; for Tumor inhibition / Tumor weight: d8
Protocol: ICR mouse was inoculated with solid tumor according to tumor grafting process (tumor piece was weighed under sterile condition, homogenized with glass tissue homogenizer, placed within a sterile container, to which was added physiological saline to prepare 1:3 cell suspension. The container was placed on ice and aspirated and the cells were mixed homogeneously before each aspiration. Each mouse was inoculated subcutaneously 0.2 mL at right fore axilla). […] The mice were administered intravenously, once a day and 7 administrations in total. The administration volume was 0.4 ml/20 g. The mice bearing tumor were sacrificed 8 days after inoculation (d8). The tumor tissue was separated and weighed. The data was analyzed with statistics method (t-test).
Dose setting: 5 groups in total.

[9] = tested on: liver cancer cell line HEPG2; test: Anti-tumor activity in vitro, MTT method; conditions: Homo sapiens, HepG2, 48 h, read-out: HEPG2 (IC50/μM)
Protocol: as §1, §2

[10] = tested on: breast cancer cell line MCF-7; test: Anti-tumor activity in vitro, MTT method; conditions: Homo sapiens, MCF7, 48 h, read-out: MCF7 (IC50/μM)
Protocol: as §1, §2

[11] = tested on: stomach cancer cell line BSG823; test: Anti-tumor activity in vitro, MTT method; conditions: 48 h, read-out: BSG823 (IC50/μM)
Protocol: as §1, §2

leukemia cell line NB4 = test: Anti-tumor activity in vitro, MTT method; conditions: 48 h, read-out: NB4 (IC50/μM)
Protocol: as §1, §2

[12] = 7.5 mg/kg intravenously once a day
[13] = 15 mg/kg intravenously once a day
[14] = 30 mg/kg intravenously once a day

CN1CCN(Cc2ccc(NC(=O)c3n[nH]cc3Nc3ncnc4occc34)cc2)CC1 [Compound I-21, 4-(4-furo[2,3-d]pyrimidinylamino)-N-(4-((4-methyl-1-piperazinyl)methyl)phenyl)-1H-3-pyrazolecarboxamide] gave an IC50 ([1]; read-out: HCT-116 (IC50/μM)) of 9.58 µM and an IC50 [2] of 17.4 µM.
In the case of O=C(Nc1ccc(CN2CCOCC2)cc1)c1n[nH]cc1Nc1ncnc2sccc12 [Compound I-2, 4-(4-thieno[2,3-d]pyrimidinylamino)-N-(4-((4-morpholinyl)methyl)phenyl)-1H-3-pyrazolecarboxamide], the solubility at 72 h [3] is reported as < 0.08 µg/mL, the “plasma stability in 24 h (in words)” value (Plasma stability) is reported as “good plasma stability” and the “Plasma stability (HPLC reading)” value (Plasma stability; Time 0 h) is reported as 2.36. The “Plasma stability (HPLC reading)” value (Plasma stability; Time 1 h) was 2.34, the “Plasma stability (HPLC reading)” value (Plasma stability; Time 2 h) was 2.29 and the “Plasma stability (HPLC reading)” value (Plasma stability; Time 3 h) was 2.21. For the same compound, the “Plasma stability (HPLC reading)” value (Plasma stability; Time 5 h) was 2.16, the “Plasma stability (HPLC reading)” value (Plasma stability; Time 8 h) was 2.11 and the “Plasma stability (HPLC reading)” value (Plasma stability; Time 12 h) was 1.97. The “Plasma stability (HPLC reading)” value (Plasma stability; Time 24 h) was 1.85.
CN1CCN(Cc2ccc(NC(=O)c3n[nH]cc3Nc3ncnc4sccc34)cc2)CC1 [Compound I-1, 4-(4-thieno[2,3-d]pyrimidinylamino)-N-(4-((4-methyl-1-piperazinyl)methyl)phenyl)-1H-3-pyrazole carboxamide] gave an IC50 [4] of 50.3 µM, an IC50 ([1]; read-out: HCT116 (IC50/μM)) of 0.25 µM and an IC50 ([1]; read-out: HCT-116 (IC50/μM)) of 0.13 µM. For the same compound, the IC50 [5] was 2.27 µM, the solubility at 72 h [3] was < 0.1 µg/mL and the IC50 [2] was 6.23 µM. For the same compound, the “plasma stability in 24 h (in words)” value (Plasma stability) was “good plasma stability”, the “Plasma stability (HPLC reading)” value (Plasma stability; Time 0 h) was 2.16 and the “Plasma stability (HPLC reading)” value (Plasma stability; Time 1 h) was 2.24. For the same compound, the “Plasma stability (HPLC reading)” value (Plasma stability; Time 2 h) was 2.22, the “Plasma stability (HPLC reading)” value (Plasma stability; Time 3 h) was 2.12 and the “Plasma stability (HPLC reading)” value (Plasma stability; Time 5 h) was 2.11. For the same compound, the “Plasma stability (HPLC reading)” value (Plasma stability; Time 8 h) was 1.91, the “Plasma stability (HPLC reading)” value (Plasma stability; Time 12 h) was 1.84 and the “Plasma stability (HPLC reading)” value (Plasma stability; Time 24 h) was 1.95. The IC50 [6] was 3.73 µM, the IC50 [7] was 5.45 µM and the IC50 [8] was 2.54 µM. The IC50 (leukemia cell line K562) was 3.2 µM, the “Body weight After administration” value (S180 grafting tumor; [12]) was 24.00 ± 0.75 g and the Tumor inhibition (S180 grafting tumor; [12]) was 36.94%. The Tumor weight (S180 grafting tumor; [12]) was 0.74 ± 0.19 g, the “effect on S180 tumor growth compared to the model control group (in words)” value (S180 grafting tumor; 7.5 mg/kg, P<0.05) was “significant inhibitory effect” and the “Body weight After administration” value (S180 grafting tumor; [13]) was 20.00 ± 1.94 g. The Tumor inhibition (S180 grafting tumor; [13]) was 45.2%, the Tumor weight (S180 grafting tumor; [13]) was 0.63 ± 0.11 g and the “effect on S180 tumor growth compared to the model control group (in words)” value (S180 grafting tumor; 30 mg/kg and 15 mg/kg, P<0.01) was “very significant inhibitory effect”. The “effect on the body weight of experimental animals (in words)” value (S180 grafting tumor; 30 mg/kg and 15 mg/kg, P<0.05) was “significant inhibitory effect on the body weight”, the “Body weight After administration” value (S180 grafting tumor; [14]) was 20.43 ± 3.20 g and the Tumor inhibition (S180 grafting tumor; [14]) was 55.5%. The Tumor weight (S180 grafting tumor; [14]) was 0.52 ± 0.25 g, the IC50 [9] was 25.2 µM and the IC50 [10] was 0.42 µM. The IC50 [11] was 20.7 µM and the IC50 (leukemia cell line NB4) was 0.74 µM.
